Measured values: PubChem BioAssay AID2060626 (Molecular Pharmacology Branch, DTP, NCI, 2025)

System: 168753-222-R-J1-PDC complex spheroid viability
Assay: Anticancer human tumor 168753-222-R-J1-PDC patient-derived bladder carcinoma cell line growth inhibition [CLK]
Conditions: for IC50: curve of first compound; for viability, T/C: stronger effect = lower value
Method in brief: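 Patient-derived tumor cells grown as complex spheroids with HUVEC endothelial cells and mesenchymal stem cells, treated with drug combinations. Concentrations descend in half-log steps from near clinical Cmax, or from 10 microM if Cmax unknown.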

[1] = second compound 0.0316 µM, first compound 0.0316 µM
[2] = second compound 0.0316 µM, first compound 0.1 µM
[3] = second compound 0.0316 µM, first compound 0.316 µM
[4] = second compound 0.0316 µM, first compound 1 µM
[5] = second compound 0.1 µM, first compound 0.0316 µM
[6] = second compound 0.1 µM, first compound 0.1 µM
[7] = second compound 0.1 µM, first compound 0.316 µM
[8] = second compound 0.1 µM, first compound 1 µM
[9] = second compound 0.316 µM, first compound 0.0316 µM
[10] = second compound 0.316 µM, first compound 0.1 µM
[11] = second compound 0.316 µM, first compound 0.316 µM
[12] = second compound 0.316 µM, first compound 1 µM
[13] = second compound 1 µM, first compound 0.0316 µM
[14] = second compound 1 µM, first compound 0.1 µM
[15] = second compound 1 µM, first compound 0.316 µM
[16] = second compound 1 µM, first compound 1 µM
[17] = second compound 3.16 µM, first compound 0.0316 µM
[18] = second compound 3.16 µM, first compound 0.1 µM
[19] = second compound 3.16 µM, first compound 0.316 µM
[20] = second compound 3.16 µM, first compound 1 µM
[21] = second compound 10 µM, first compound 0.0316 µM
[22] = second compound 10 µM, first compound 0.1 µM
[23] = second compound 10 µM, first compound 0.316 µM
[24] = second compound 10 µM, first compound 1 µM
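Further: viability measured after seven days of drug exposure.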
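Wherever viability, T/C is given: luminescence signal used as surrogate for viable cell amount; 100% = DMSO vehicle control wells.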

CC(=O)O[C@H]1C(=O)[C@@]2(C)[C@H]([C@H](OC(=O)c3ccccc3)[C@]3(O)C[C@H](OC(=O)[C@H](O)[C@@H](NC(=O)c4ccccc4)c4ccccc4)C(C)=C1C3(C)C)[C@]1(OC(C)=O)CO[C@@H]1C[C@@H]2O + CN1CCN(c2cc(C(=O)Nc3cc4cc(-c5cnn(C)c5)ccc4cn3)ccn2)CC1
IC50 (second compound 0.0316 µM): < 31.6 nM | IC50 (second compound 0.1 µM): < 31.6 nM | IC50 (second compound 0.316 µM): < 31.6 nM | IC50 (second compound 1 µM): < 31.6 nM | IC50 (second compound 3.16 µM): < 31.6 nM | IC50 (second compound 10 µM): < 31.6 nM | viability, T/C [1]: 22.1% | viability, T/C [2]: 11.1% | viability, T/C [3]: 11.2% | viability, T/C [4]: 10.7% | viability, T/C (second compound 0.0316 µM, first compound 3.16 µM): 11.2% | viability, T/C (second compound 0.0316 µM, first compound 10 µM): 12.3% | viability, T/C [5]: 12.3% | viability, T/C [6]: 10.6% | viability, T/C [7]: 10.9% | viability, T/C [8]: 9.64% | viability, T/C (second compound 0.1 µM, first compound 3.16 µM): 9.88% | viability, T/C (second compound 0.1 µM, first compound 10 µM): 11.4% | viability, T/C [9]: 10.7% | viability, T/C [10]: 10.2% | viability, T/C [11]: 10.4% | viability, T/C [12]: 9.61% | viability, T/C (second compound 0.316 µM, first compound 3.16 µM): 10.3% | viability, T/C (second compound 0.316 µM, first compound 10 µM): 13.2% | viability, T/C [13]: 0.12% | viability, T/C [14]: 0.32% | viability, T/C [15]: 0.16% | viability, T/C [16]: 0.11% | viability, T/C (second compound 1 µM, first compound 3.16 µM): 0.15% | viability, T/C (second compound 1 µM, first compound 10 µM): 0.21% | viability, T/C [17]: 0.05% | viability, T/C [18]: 0.19% | viability, T/C [19]: 0.17% | viability, T/C [20]: 0.06% | viability, T/C (second compound 3.16 µM, first compound 3.16 µM): 0.09% | viability, T/C (second compound 3.16 µM, first compound 10 µM): 0.14% | viability, T/C [21]: 0.07% | viability, T/C [22]: 0.11% | viability, T/C [23]: 0.51% | viability, T/C [24]: 0.1% | viability, T/C (second compound 10 µM, first compound 3.16 µM): 0.17% | viability, T/C (second compound 10 µM, first compound 10 µM): 0.23%

CCc1c2c(nc3ccc(O)cc13)-c1cc3c(c(=O)n1C2)COC(=O)[C@]3(O)CC + CN1CCN(c2cc(C(=O)Nc3cc4cc(-c5cnn(C)c5)ccc4cn3)ccn2)CC1
IC50 (second compound 0.0316 µM): 16.9 nM | IC50 (second compound 0.1 µM): < 3.16 nM | IC50 (second compound 0.316 µM): < 3.16 nM | IC50 (second compound 1 µM): < 3.16 nM | IC50 (second compound 3.16 µM): < 3.16 nM | IC50 (second compound 10 µM): < 3.16 nM | viability, T/C (second compound 0.0316 µM, first compound 0.00316 µM): 77.7% | viability, T/C (second compound 0.0316 µM, first compound 0.01 µM): 65.3% | viability, T/C [1]: 29.3% | viability, T/C [2]: 30.1% | viability, T/C [3]: 13.1% | viability, T/C [4]: 8.39% | viability, T/C (second compound 0.1 µM, first compound 0.00316 µM): 32.6% | viability, T/C (second compound 0.1 µM, first compound 0.01 µM): 36.1% | viability, T/C [5]: 20.5% | viability, T/C [6]: 12.4% | viability, T/C [7]: 8.78% | viability, T/C [8]: 6.92% | viability, T/C (second compound 0.316 µM, first compound 0.00316 µM): 9.06% | viability, T/C (second compound 0.316 µM, first compound 0.01 µM): 8.44% | viability, T/C [9]: 7.99% | viability, T/C [10]: 9.04% | viability, T/C [11]: 2.19% | viability, T/C [12]: 0.99% | viability, T/C (second compound 1 µM, first compound 0.00316 µM): 0.14% | viability, T/C (second compound 1 µM, first compound 0.01 µM): 0.16% | viability, T/C [13]: 0.1% | viability, T/C [14]: 0.08% | viability, T/C [15]: 0.24% | viability, T/C [16]: 1.02% | viability, T/C (second compound 3.16 µM, first compound 0.00316 µM): 0.15% | viability, T/C (second compound 3.16 µM, first compound 0.01 µM): 0.15% | viability, T/C [17]: 0.25% | viability, T/C [18]: 0.08% | viability, T/C [19]: 0.11% | viability, T/C [20]: 0.31% | viability, T/C (second compound 10 µM, first compound 0.00316 µM): 0.66% | viability, T/C (second compound 10 µM, first compound 0.01 µM): 0.14% | viability, T/C [21]: 0.19% | viability, T/C [22]: 0.14% | viability, T/C [23]: 0.18% | viability, T/C [24]: 0.45%
